Tests used:
[1] = tested on: rhoA expression in rat optic nerve oligodendrocytes; experiment: rhoA expression by Quantitative RT-PCR in MECA-treated oligodendrocytes; type: cell-based
Procedure: Primers and probes were designed using the Primer Express software from Applied Biosystems. Probes were designed with 6-FAM as fluorophore at the 5′end and TAMRA as quencher at the 3′ end. QRT-PCR reactions were set up as a one-step reaction using 20 ng of total RNA as template, and included 1× Taqman™ buffer, 5 mM MgCl2, 1.5 mM dNTP mix, 300 nM forward and reverse primers, […] Taqman™ probe, 20 units RNase inhibitor, 5 units Multiscribe™ MuLV reverse transcriptase and 2 units AmpliTaq™ Gold DNA polymerase in a 50 microliter reaction. All reagents used were from Applied Biosystems. Reactions were run on a ABI 7500 using the following cycling conditions: “Hold” at 48° C. for 30 minutes, “Hold” at 95 for 10 minutes, “Denature” at 95° C. for 15 seconds, and “Anneal/Extend” at 60° C. for 1 minute. The last two steps were repeated for 40 cycles.
RhoA is a member of the Ras superfamily of small GTPases and functions as a GDP/GTP—regulated binary switch that regulates signal transduction pathways controlling actin cytoskeletal reorganization. […] Expression of rhoA was determined by Quantitative RT-PCR in oligodendrocytes treated with MECA or untreated for various times, as set forth below. […] Quantitative RT-PCR was set up as per standard protocol as a single step reaction. […]

[2] = tested on: optic nerve oligodendrocytes; experiment: In vitro myelination assay: co-culture of retinal ganglion cells and optic nerve oligodendrocytes; type: cell-based, rat
Procedure: Co-cultures of RGCs and optic nerve oligodendrocytes were prepared and used as follows. Purified oligodendrocytes were plated on PDL/merosin (Chemicon) substrate-coated tissue culture dishes in defined DMEM Sato medium, promoting proliferation for two days. After 2 days, the medium was switched to defined DMEM Sato medium, which contained factors to promote differentiation. Twenty-four hours after the switch to differentiation medium, ADORA1 agonists were added. Retinal ganglion cells were plated 24 hours thereafter, and the medium consisted of 50% astrocyte-conditioned medium (method see above) with DMEM Sato medium mixed with fresh defined Neurobasal™ (Invitrogen) Sato medium, containing B27™ supplement and growth factors (BDNF and CNTF), to promote retinal ganglion cell survival and 0.5% FBS. The FBS was added to help retinal ganglion cell survival. This is because forskolin, which up-regulates cAMP, could not be used when adding any ADORA agonists or antagonists, since these receptors are G-protein-coupled receptors and therefore, regulators of cAMP themselves. Cultures were grown for two weeks, with medium changes occurring every three days.
Optic nerve or cortical oligodendrocytes were purified from postnatal day 2-day 5 old rat pups by immuno-panning with the A2B5 antibody (ATCC). Retinal ganglion cells were purified from 5 day old rats by immunopanning with the Thy1 antibody T11D7.
Purified oligodendrocytes were plated on PDL/merosin substrate-coated tissue culture dishes in defined DMEM Sato medium, promoting proliferation for two days. After 2 days, the medium was switched to defined DMEM Sato medium, containing factors promoting differentiation. Twenty-four hours after the switch to differentiation medium, ADORA1 agonists were added. Retinal ganglion cells were plated 24 hours thereafter, and medium consisted of astrocyte-conditioned medium with DMEM Sato medium mixed with defined Neurobasal™ Sato medium, containing growth factors promoting retinal ganglion cell survival and 0.5% FBS.
Cultures were grown for two weeks, with medium changes occurring every three days. Control co-cultures were devoid of myelin segments, whereas oligodendrocytes co-cultures with ADORA1 agonist contained myelin segments originating from approximately 90% of the oligodendrocytes in these cultures.
To address whether the effect of the adenosine 1 receptor (ADORA1) agonist only affects oligodendrocytes, or also affects retinal ganglion cells (RGCs) to lead to myelination, purified rat optic nerve oligodendrocytes were plated on PEI-pre-coated culture dishes (6-well plates, Falcon BD) in mitogenic medium and cultured for two days. After two days, oligodendrocytes were switched to differentiation medium and the agonist MECA (Sigma) was added at a 200 μM concentration to this culture medium 24 hours later. The agonist was removed by washing the cells at 24, 48 and 72 hours, respectively, after its administration. Oligodendrocytes were subsequently taken off the PEI plates by incubation with Trypsin (535 units/ml) in Earle's Balanced Salt Solution (EBSS; Invitrogen) at 37° C. for 5 minutes, washed with PBS containing 30% FBS (Hyclone) and were plated onto RGCs grown for one week on PDL/merosin substrate. Cultures were fixed for immunohistochemistry two weeks after co-plating the oligodendrocytes with the RGCs. Since the oligodendrocytes were pre-incubated separately with the ADORA1 agonist before they were added to the RGCs, the myelin figures observed in FIG. 6 are due to the switch in the oligodendrocytes themselves from a non-myelinating to a myelinating phenotype.
To address the question of whether it is a permanent or a reversible switch if the oligodendrocytes are cultured without neurons, oligodendrocytes were treated with ADORA1 agonist for 72 hours and kept in culture alone for another 5 days. Cultured oligodendrocytes were then removed from the PEI-coated plate and co-cultured with RGCs grown for one week in culture. […]

[3] = tested on: optic nerve oligodendrocytes; experiment: Gene expression profiling (Affymetrix Rat genome 230 2.0), control vs 3-day MECA stimulated ON-oligodendrocytes; type: cell-based; details: p-value <0.05
Text: To identify transient versus long-term gene expression changes, control and 3-day ADORA1 agonist (MECA) stimulated optic nerve oligodendrocytes were compared. As described elsewhere herein, 3 days of ADORA1 stimulation were sufficient to obtain myelin segments in the optic nerve myelination system. RNA samples were generated in triplicate, each replicate generated by pooling RNA from two separate oligodendrocyte preps (one prep from 12 litters of post-natal day 4 SD pups). RNA samples were analyzed for gene expression profiling using the Affymetrix GeneChip™ Rat genome 230 2.0 Array that provides coverage of approximately 30,000 transcripts. RNA was amplified using the MessageAmp II aRNA kit from Ambion to generate sufficient amounts of RNA for hybridization to arrays, as previously described.

## CNC(=O)[C@H]1O[C@@H](n2cnc3c(N)ncnc32)[C@H](O)[C@@H]1O [MECA, 5′-N-methylcarboxamidoadenosine]
[1]; day 1 of MECA treatment, n=3
  rhoA expression compared to control (untreated): two-fold reduction
[1]; other time points (6 hours, 16 hours, 2 days, 3 days)
  rhoA expression compared to control (untreated): No significant differences
[2]; MECA present throughout the two weeks of co-culture with RGCs
  amount of myelin figures with continuous agonist: optimal amount of myelin figures
[2]; after eight days in co-culture
  myelin formation versus control cultures: myelin was observed covering the whole length of an axon
[2]; after five days in co-culture
  myelin formation versus control cultures: no significant difference
[2]; after two weeks in co-culture
  myelin formation versus control cultures: the segments (internodes) form
[2]; agonist 72 hours, then 5 days in culture alone, then co-culture with RGCs two weeks
  switch from non-myelinating to myelinating phenotype: permanent or reversible: permanent switch
[2]; optic nerve myelination system dose-response
  doses that would not produce myelin segments: below 100 μM
[3]
  differentially regulated genes, fold change >1.1 fold: 2721 genes
  differentially regulated genes, fold change >1.2 fold: 2428 genes
  differentially regulated genes, fold change >1.5 fold: 1021 genes
  down-regulated changes: 52%
  up-regulated changes: 48%

From US20060183147A1, “Methods of identifying genes which modulate myelination” (Elan Pharmaceuticals, Inc., priority 2005, published 2006)
